Laboratory results: patent US20230357253A1, “AGONISTS OF STIMULATOR OF INTERFERON GENES STING” (THE SCRIPPS RESEARCH INSTITUTE, priority 2020, published 2023)

Experiments:
[1] = system: THP-1 Lucia ISG cells; experiment: ISRE-luciferase assay (ISG-LUC activation); format: cell-based; conditions: Homo sapiens, THP1-Lucia ISG, 24 hours, luciferase reporter
Procedure, shortened: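 THP-1 Lucia ISG cells at 5×10^5 cells/ml in 2% FBS medium were treated with test article or DMSO vehicle for 24 h. Secreted luciferase was read by luminescence and normalized to vehicle, reported as RLU.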

[2] = target: human STING protein (Homo sapiens (Human), UniProt Q86WV6); experiment: WT STING binding assay (HTRF, competition with labeled 2′3′cGAMP); conditions: recombinant 6×His-tagged human STING, three hours at room temperature
Chain of human STING protein (Q86WV6 whole entry): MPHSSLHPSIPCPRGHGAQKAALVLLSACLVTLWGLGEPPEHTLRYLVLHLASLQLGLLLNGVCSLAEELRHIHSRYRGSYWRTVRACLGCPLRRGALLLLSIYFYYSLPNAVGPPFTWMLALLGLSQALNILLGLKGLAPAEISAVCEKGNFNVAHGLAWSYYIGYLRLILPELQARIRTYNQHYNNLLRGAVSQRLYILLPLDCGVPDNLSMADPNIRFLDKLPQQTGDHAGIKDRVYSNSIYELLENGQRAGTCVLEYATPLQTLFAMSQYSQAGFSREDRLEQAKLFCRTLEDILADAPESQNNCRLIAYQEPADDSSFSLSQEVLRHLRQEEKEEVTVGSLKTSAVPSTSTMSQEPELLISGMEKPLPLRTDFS
Description: WT STING binding assay (Cisbio, Catalog #64BDSTGPEH). […] Upon proximity of the two dyes, the excitation of the donor by the flash lamp on the PHERAstar FSX plate reader triggers a Fluorescence Resonance Energy Transfer (FRET) towards the acceptor, which in turn fluoresces at 665 nm. To assess the ability of the synthetic small molecule STING ligands to bind to human STING, a competitive assay format was applied. A 10-point titration of each of the synthetic ligands in 5 uL were transferred into a 384 well plate, followed by 20 uL of assay buffer containing the 6×His-tagged human STING protein and labeled 2′3′cGAMP ligand and incubated for three hours at room temperature. The raw values obtained from the PHERAstar were used to calculate the reported IC50 values (the signal is inversely proportional to the binding of the synthetic ligand) through curve fitting in Genedata. The percent inhibition was calculated based upon the maximal amount of binding by synthetic compound versus the maximum binding of unlabeled 2′3′ cGAMP which was used as a control in each assay.

Structure (SMILES)	EC50 [1]	IC50 [2]
COc1cc(C(=O)O)c(NC(=O)c2ccc3nnnn3n2)cc1OCCCCOc1cc(NC(=O)c2ccc(-n3ccnc3)nn2)c(C(=O)O)cc1F [Compound 95]	500 to 5000 nM	10 to 100 nM
COc1cc(NC(=O)c2ccc3nnnn3n2)c(C(=O)O)cc1CCCc1cc(NC(=O)c2ccc(-n3ccnc3)nn2)c(C(=O)O)cc1F [Compound 96]	50 to 500 nM	10 to 100 nM
O=C(Nc1cc(OCCc2cc(NC(=O)c3ccc4nnnn4n3)c(C(=O)O)cc2F)ccc1C(=O)O)c1ccc(-n2ccnc2)nn1 [Compound 97]	500 to 5000 nM	100 to 1000 nM
O=C(Nc1cc(CCCCc2cc(NC(=O)c3ccc4nnnn4n3)c(C(=O)O)cc2F)c(F)cc1C(=O)O)c1ccc(-n2ccnc2)nn1 [Compound 98]	50 to 500 nM	10 to 100 nM
COc1cc(C(=O)O)c(NC(=O)c2ccc(-n3ccnc3)nn2)cc1CCOc1cc(NC(=O)c2ccc3nnnn3n2)c(C(=O)O)cc1F [Compound 99]	500 to 5000 nM	100 to 1000 nM
COc1cc(C(=O)O)c(NC(=O)c2ccc3nnnn3n2)cc1CCOc1cc(NC(=O)c2ccc(-n3ccnc3)nn2)c(C(=O)O)cc1F [Compound 100]	50 to 500 nM	100 to 1000 nM
COc1cc(NC(=O)c2ccc(-n3ccnc3)nn2)c(C(=O)O)cc1CCCc1cc(NC(=O)c2ccc3nnnn3n2)c(C(=O)O)cc1F [Compound 101]	50 to 500 nM	100 to 1000 nM
COc1cc(C(=O)O)c(NC(=O)c2ccc3nnnn3n2)cc1OCCc1cc(NC(=O)c2ccc(-n3ccnc3)nn2)c(C(=O)O)cc1F [Compound 102]	500 to 5000 nM	100 to 1000 nM
COc1cc(NC(=O)c2ccc3nnnn3n2)c(C(=O)O)cc1CCOc1cc(NC(=O)c2ccc(-n3ccnc3)nn2)c(C(=O)O)cc1F [Compound 103]	500 to 5000 nM	100 to 1000 nM
O=C(Nc1cc(CCOc2cc(NC(=O)c3ccc4nnnn4n3)c(C(=O)O)cc2Cl)ccc1C(=O)O)c1ccc(-n2ccnc2)nn1 [Compound 104]	50 to 500 nM	10 to 100 nM
O=C(Nc1cc(CCCc2ccc(C(=O)O)c(NC(=O)c3ccc4nnnn4n3)c2)c(Cl)cc1C(=O)O)c1ccc(-n2ccnc2)nn1 [Compound 105]	500 to 5000 nM	10 to 100 nM
COc1cc(C(=O)O)c(NC(=O)c2ccc(-n3ccnc3)nn2)cc1CCCc1cc(NC(=O)c2ccc3nnnn3n2)c(C(=O)O)cc1F [Compound 107]	50 to 500 nM	10 to 100 nM
COc1cc(C(=O)O)c(NC(=O)c2ccc(-n3ccnc3)nn2)cc1OCCc1cc(NC(=O)c2ccc3nnnn3n2)c(C(=O)O)cc1Cl [Compound 109]	500 to 5000 nM	100 to 1000 nM
COc1cc(C(=O)O)c(NC(=O)c2ccc(-n3ccnc3)nn2)cc1OCCc1cc(NC(=O)c2ccc3nnnn3n2)c(C(=O)O)cc1F [Compound 110]	> 5000 nM	100 to 1000 nM
O=C(Nc1cc(CCCc2cc(NC(=O)c3ccc(-n4ccnc4)nn3)c(C(=O)O)cc2F)c(F)cc1C(=O)O)c1cccnn1 [Compound 111]	50 to 500 nM	10 to 100 nM
O=C(Nc1cc(CCCc2cnc(C(=O)O)c(NC(=O)c3ccc4nnnn4n3)c2)c(F)cc1C(=O)O)c1ccc(-n2ccnc2)nn1 [Compound 112]	500 to 5000 nM	10 to 100 nM
O=C(Nc1cc(OCCc2cc(NC(=O)c3ccc4nnnn4n3)c(C(=O)O)cc2Cl)ccc1C(=O)O)c1ccc(-n2ccnc2)nn1 [Compound 114]	50 to 500 nM	100 to 1000 nM
COc1cc(C(=O)O)c(NC(=O)c2ccc3nnnn3n2)cc1CCCc1cc(NC(=O)c2ccc(-n3ccnc3)nn2)c(C(=O)O)cc1F [Compound 115]	50 to 500 nM	10 to 100 nM
O=C(Nc1cc(OCCc2cc(NC(=O)c3ccc4nnnn4n3)c(C(=O)O)cc2F)c(F)cc1C(=O)O)c1ccc(-n2ccnc2)nn1 [Compound 116]	50 to 500 nM	10 to 100 nM
O=C(Nc1cc(CCCc2cc(NC(=O)c3ccc4cnnn4n3)c(C(=O)O)cc2F)c(F)cc1C(=O)O)c1ccc(-n2ccnc2)nn1 [Compound 117]	500 to 5000 nM	10 to 100 nM
O=C(Nc1cc(CCOc2c(F)cc(C(=O)O)c(NC(=O)c3ccc4nnnn4n3)c2F)c(F)cc1C(=O)O)c1ccc(-n2ccnc2)nn1 [Compound 118]	500 to 5000 nM	100 to 1000 nM
O=C(Nc1cc(CCOc2cc(NC(=O)c3ccc(-n4ccnc4)nn3)c(C(=O)O)cc2F)c(F)cc1C(=O)O)c1ccc(-n2ccnc2)nn1 [Compound 119]	50 to 500 nM	10 to 100 nM

Structure (SMILES)	EC50 [1]	IC50 [2]
O=C(Nc1cc(CCOc2c(F)cc(C(=O)O)c(NC(=O)c3ccc(-n4ccnc4)nn3)c2F)c(F)cc1C(=O)O)c1ccc(-n2ccnc2)nn1 [Compound 123]	50 to 500 nM	100 to 1000 nM
COc1cc(C(=O)O)c(NC(=O)c2ccc(-n3ccnc3)nn2)cc1CSCc1cc(NC(=O)c2ccc(-n3ccnc3)nn2)c(C(=O)O)cc1F [Compound 124]	50 to 500 nM	10 to 100 nM
COc1cc(C(=O)O)c(NC(=O)c2ccc(-n3ccnc3)nn2)cc1OCCc1cc(C(=O)O)c(NC(=O)c2ccc3nnnn3n2)cc1C#N [Compound 128]	50 to 500 nM	10 to 100 nM
O=C(Nc1cc(OCCc2cc(NC(=O)c3ccc(-n4ccnc4)nn3)c(C(=O)O)cc2Cl)c(F)cc1C(=O)O)c1ccc(-n2ccnc2)nn1 [Compound 129]	50 to 500 nM	10 to 100 nM
NC(=O)c1nnn2nc(C(=O)Nc3cc(CCOc4cc(NC(=O)c5ccc(-n6ccnc6)nn5)c(C(=O)O)cc4F)c(F)cc3C(=O)O)ccc12 [Compound 135]	50 to 500 nM	10 to 100 nM
N#Cc1nnn2nc(C(=O)Nc3cc(CCOc4cc(NC(=O)c5ccc(-n6ccnc6)nn5)c(C(=O)O)cc4F)c(F)cc3C(=O)O)ccc12 [Compound 136]	> 5000 nM	100 to 1000 nM
Nc1cc(C(=O)Nc2cc(OCCc3cc(NC(=O)c4ccc(-n5ccnc5)nn4)c(C(=O)O)cc3F)c(F)cc2C(=O)O)nn2nnnc12 [Compound 137]	50 to 500 nM	10 to 100 nM
COC(=O)c1cc(F)c(CCOc2cc(NC(=O)c3ccc(-n4ccnc4)nn3)c(C(=O)O)cc2F)cc1NC(=O)c1ccc(-n2ccnc2)nn1 [Compound 140]	< 50 nM	100 to 1000 nM
COc1cc(NC(=O)c2ccc(-n3ccnc3)nn2)c(C(=O)O)cc1OCCc1cc(NC(=O)c2ccc(-n3ccnc3)nn2)c(C(=O)O)cc1F [Compound 142]	50 to 500 nM	10 to 100 nM
O=C(Nc1cc(CS(=O)(=O)Cc2cc(NC(=O)c3ccc(-n4ccnc4)nn3)c(C(=O)O)cc2F)c(F)cc1C(=O)O)c1ccc(-n2ccnc2)nn1 [Compound 143]	> 5000 nM	10 to 100 nM
COc1cc(NC(=O)c2ccc3nnnn3n2)c(C(=O)O)cc1OCCc1cc(NC(=O)c2ccc(-n3ccnc3)nn2)c(C(=O)O)cc1F [Compound 147]	> 5000 nM	100 to 1000 nM
O=C(Nc1cc(CCOCc2cc(NC(=O)c3ccc(-n4ccnc4)nn3)c(C(=O)O)cc2F)c(F)cc1C(=O)O)c1ccc(-n2ccnc2)nn1 [Compound 149]	500 to 5000 nM	10 to 100 nM
O=C(Nc1cc(COCc2cc(NC(=O)c3ccc(-n4ccnc4)nn3)c(C(=O)O)cc2F)c(F)cc1C(=O)O)c1ccc(-n2ccnc2)nn1 [Compound 151]	50 to 500 nM	10 to 100 nM
O=C(Nc1cc(OCCc2cc(NC(=O)c3ccc(-n4ccnc4)nn3)c(C(O)C(=O)O)cc2F)c(F)cc1C(=O)O)c1ccc(-n2ccnc2)nn1 (stereo not shown) [Compound 154]	500 to 5000 nM	100 to 1000 nM
O=C(Nc1cc(CCOc2cc(NC(=O)c3ccc4nnnn4n3)c(C(=O)O)cc2F)c(F)cc1C(=O)O)c1ccc2nnnn2n1 [Compound 160]	> 5000 nM	100 to 1000 nM
O=C(Nc1cc(CCCc2cc(NC(=O)c3ccc4nnnn4n3)c(C(=O)O)cc2F)c(F)cc1C(=O)O)c1ccc2nnnn2n1 [Compound 161]	> 5000 nM	100 to 1000 nM
N#Cc1cc(C(=O)O)c(NC(=O)c2ccc(-n3ccnc3)nn2)cc1OCCc1cc(NC(=O)c2ccc(-n3ccnc3)nn2)c(C(=O)O)cc1F [Compound 167]	50 to 500 nM	10 to 100 nM
COc1cc(NC(=O)c2ccc(-n3ccnc3)nn2)c(C(=O)O)c(F)c1CCCc1cc(NC(=O)c2ccc(-n3ccnc3)nn2)c(C(=O)O)cc1F [Compound 170]	50 to 500 nM	10 to 100 nM
O=C(Nc1cc(OCCOc2cc(NC(=O)c3ccc(-n4ccnc4)nn3)c(C(=O)O)cc2F)c(F)cc1C(=O)O)c1ccc(-n2ccnc2)nn1 [Compound 171]	50 to 500 nM	10 to 100 nM
O=C(Nc1cc(F)c(CCCc2cc(C(=O)O)c(NC(=O)c3ccc(-n4ccnc4)nn3)cc2F)cc1C(=O)O)c1ccc(-n2ccnc2)nn1 [Compound 172]	> 5000 nM	100 to 1000 nM
CCOC(=O)c1cc(F)c(CCCc2cc(NC(=O)c3ccc(-n4ccnc4)nn3)c(C(=O)O)cc2F)cc1NC(=O)c1ccc(-n2ccnc2)nn1 [Compound 173, 2-(6-(1H-imidazol-1-yl)pyridazine-3-carboxamido)-4-(3-(5-(6-(1H-imidazol-1-yl)pyridazine-3-carboxamido)-4-(ethoxycarbonyl)-2-fluorophenyl)propyl)-5-fluorobenzoic acid]	< 50 nM	10 to 100 nM
O=C(Nc1cc(OCCc2cc(C(=O)O)c(NC(=O)c3ccc4nnnn4n3)cc2F)c(F)cc1C(=O)O)c1ccc2nnnn2n1 [Compound 176]	> 5000 nM	100 to 1000 nM
